The results in this text go back to patent US20120027687A1, “FATTY ACID PROTEIN KINASE C ACTIVATORS AND ANTICOAGULANT FOR THE TREATMENT OF STROKE” (priority 2010, published 2012).

One assay has as its target T1, PKCδ (Homo sapiens, UniProt Q05655).
T1 construct: purchased Calbiochem
The assay is described as follows: PKC assay with purified PKCδ. To be noted: about 1-100 μM, data not shown. In kind it is biochemical. As for the experimental part:
(§1) Protein kinase C assay. Rat hippocampal cells were cultured and scraped in 0.2 ml homogenization buffer (20 mM Tris-HCl, pH 7.4, 50 mM NaF, 1 μg/ml leupeptin, and 0.1 mM PMSF) and homogenized by sonication a Marsonix microprobe sonicator (5 sec, 10W). To measure PKC, 10 μl of cell homogenate or purified PKC isozyme (purchased from Calbiochem) was incubated for 15 min at 37° C. in the presence of 10 μM histones, 4.89 mM CaCl2, 1.2 μg/μl phosphatidyl-L-serine, 0.18 μg/μl 1,2-dioctanoyl-sn-glycerol, 10 mM MgCl2, 20 mM HEPES (pH 7.4), 0.8 mM EDTA, 4 mM EGTA, 4% glycerol, 8 μg/ml aprotinin, 8 μg/ml leupeptin, and 2 mM benzamidine. 0.5 Ci [^γ32P]ATP was added and ^32P-phosphoprotein formation was measured by adsorption onto phosphocellulose as described previously. Nelson and Alkon, J. Neurochemistry (1995), vol. 65, pp. 2350-2357. For measurements of activation by BR-101 (DCP-LA) and similar compounds. PKC activity was measured in the absence of diacylglycerol and phosphatidylserine and PKC δ, ε, η, and μ were measured in the absence of added EGTA and CaCl2, as described by Kanno et al. (J. Lipid Res. 2006, vol. 47, pp. 1146-1150). […]
(§2) To determine their PKC isozyme specificity, fatty acid derivatives were preincubated with purified PKC for five minutes and the PKC activity was measured radiometrically.

The test system of the next assay is other PKC isoforms. The assay is described as follows: PKC isozyme specificity, other isoforms. Format: biochemical. To be noted: at 10 μM, data not shown. As for the experimental part:
as §1, §2

The next assay has as its system Aβ. Put plainly: Aβ production in N2a neuroblastoma cells transfected with human APPSwe/PSID. In kind it is cell-based, mouse. To be noted: 24 hours. The procedure:
Cell culture. Rat hippocampal H19-7/IGF-IR cells (ATCC, Manassas, Va.) were plated onto poly-L-lysine coated plates and grown at 35° C. in DMEM/10% FCS for several days until about 50% coverage was obtained. The cells were then induced to differentiate into a neuronal phenotype by replacing the medium with 5 ml N2 medium containing 10 ng/ml basic fibroblast growth factor at 39° C. and grown in T-75 flasks at 37° C. Human SH-SY5Y neuroblastoma cells (ATCC) were cultured in 45% F12K/45% MEM/10% FCS. Mouse N2A neuroblastoma cells were cultured in DMEM/10% FCS without glutamine. Rat hippocampal neurons from 18-day-old embryonic Sprague Dawley rat brains were plated on 12- or 96-well plates coated with poly-D-lysine (Sigma-Aldrich, St. Louis, Mo.) in B-27 neurobasal medium containing 0.5 mM glutamine and 25 μM glutamate (Invitrogen, Carlsbad, Calif.) and cultured for three days in the medium without glutamate. The neuronal cells were grown under 5% CO2 in an incubator maintained at 37° C. for 14 days.
Aβ Measurement and Cell Viability Assay. Aβ was measured using an Aβ 1-42 human fluorimetric ELISA kit (Invitrogen) according to the manufacturer's instructions. Results were measured in a Biotek Synergy HT microplate reader. AlamarBlue and CyQuant NF (Invitrogen) according to the manufacturer's instructions.
To measure the effects of PKCε activation on Aβ production, mouse neuro2a (N2a) neuroblastoma cells transfected with human APPSwe/PSID were used, which produce large quantities of Aβ. Petanceska et al., J. Neurochem. (1996), vol. 74, pp. 1878-1884. […] With bryostatin, which activates PKC by binding to the diacylglycerol-binding site, the inhibition was biphasic with concentrations of 20 nM or higher producing no net effect. This may be explained by the ability of this class of PKC activators to downregulate PKC when used at high concentrations.

Assay [1] concerns Endothelin-converting enzyme (ECE). Put plainly: Endothelin-converting enzyme (ECE) activity in neuroblastoma cells. The settings on record: bryostatin 0.27 nM, BR-101 1 μM, BR-111 1 μM. Format: cell-based, human. As for the experimental part:
ECE assay. […] neuroblastoma cells were incubated with bryostatin (0.27 nM), BR-101 (DCP-LA) (1 μM), and BR-111 (DHA-CP6) (1 μM). Endothelin-converting enzyme (ECE) was measured fluorimetrically using the method of Johnson and Ahn (Anal. Biochem. (2000), vol. 286, pp. 112-118). A sample of cell homogenate (20 μl) was incubated in 50 mM MES-KOH, pH 6.0, 0.01% C12E10 (polyoxyethylene-10-lauryl ether), and 15 μM McaBK2 (7-Methoxycoumarin-4-acetyl [Ala7-(2,4-Dinitrophenyl)Lys9]-bradykinin trifluoroacetate salt) (Sigma-Aldrich). After 60 min at 37° C., the reaction was quenched by adding trifluoroacetic acid to 0.5%. The sample was diluted to 1.4 ml with water and the fluorescence was measured at ex=334 nm, em=398 nm.

T1 sequence (Q05655 whole entry): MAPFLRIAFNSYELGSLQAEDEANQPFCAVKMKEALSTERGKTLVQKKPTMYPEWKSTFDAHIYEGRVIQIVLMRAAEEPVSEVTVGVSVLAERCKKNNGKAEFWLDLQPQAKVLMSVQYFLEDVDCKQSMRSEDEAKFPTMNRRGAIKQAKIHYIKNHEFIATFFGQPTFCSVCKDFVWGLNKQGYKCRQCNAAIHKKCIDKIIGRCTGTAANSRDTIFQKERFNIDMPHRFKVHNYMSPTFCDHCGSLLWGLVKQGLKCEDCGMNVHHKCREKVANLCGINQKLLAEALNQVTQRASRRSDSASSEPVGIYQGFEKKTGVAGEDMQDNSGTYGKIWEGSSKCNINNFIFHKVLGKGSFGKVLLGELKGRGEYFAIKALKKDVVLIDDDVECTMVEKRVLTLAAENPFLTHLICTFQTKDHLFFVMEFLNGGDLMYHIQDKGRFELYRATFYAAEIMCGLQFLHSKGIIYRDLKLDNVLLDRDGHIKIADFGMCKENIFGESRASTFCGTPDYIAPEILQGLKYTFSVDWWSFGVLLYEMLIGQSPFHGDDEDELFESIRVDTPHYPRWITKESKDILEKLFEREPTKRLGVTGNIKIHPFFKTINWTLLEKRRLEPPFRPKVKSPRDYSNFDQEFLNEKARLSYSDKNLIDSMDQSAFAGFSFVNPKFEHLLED

For `CCCCCC1CC1CC1CC1CCCCCCCC(=O)O` (stereo not drawn) [BR-101, 2-[(2-pentylcyclopropyl)methyl]cyclopropaneoctanoic acid], the “effect on PKCδ at higher concentrations” value at PKCδ is recorded as “partially inhibited”. The “effects on the other PKC isoforms” value in the assay with other PKC isoforms is recorded as “relatively small effects”. For the same compound, in the assay with Aβ (various concentrations), the “levels of intracellular Aβ” value was “markedly reduced” and the “levels of secreted Aβ” value is given as “markedly reduced”. Besides, in the assay on Aβ (fatty acid derivatives up to 10 μM to 100 μM), the “concentration dependence of Aβ inhibition” value is reported as “monotonically increasing inhibition”. Moreover, the ECE activity entry in assay [1] is listed as “sustained increase”.
